Structures can show the parent of a compound that is named as a salt. Where two headings read alike, the source gives them in different places.
How the values were obtained:
[1] = target: T1, human AR (Homo sapiens, UniProt P10275); assay: AR2 assay, agonist mode: ligand-dependent AR homodimerization (NanoBiT luciferase complementation) in stable HepG2-AR2 cells; format: cell-based;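 for hill tp: Log2 fold change of luminescence over DMSO vehicle wells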;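 for max med: Log2 fold change of luminescence over DMSO vehicle wells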
T1 sequence (P10275 1-920) 1: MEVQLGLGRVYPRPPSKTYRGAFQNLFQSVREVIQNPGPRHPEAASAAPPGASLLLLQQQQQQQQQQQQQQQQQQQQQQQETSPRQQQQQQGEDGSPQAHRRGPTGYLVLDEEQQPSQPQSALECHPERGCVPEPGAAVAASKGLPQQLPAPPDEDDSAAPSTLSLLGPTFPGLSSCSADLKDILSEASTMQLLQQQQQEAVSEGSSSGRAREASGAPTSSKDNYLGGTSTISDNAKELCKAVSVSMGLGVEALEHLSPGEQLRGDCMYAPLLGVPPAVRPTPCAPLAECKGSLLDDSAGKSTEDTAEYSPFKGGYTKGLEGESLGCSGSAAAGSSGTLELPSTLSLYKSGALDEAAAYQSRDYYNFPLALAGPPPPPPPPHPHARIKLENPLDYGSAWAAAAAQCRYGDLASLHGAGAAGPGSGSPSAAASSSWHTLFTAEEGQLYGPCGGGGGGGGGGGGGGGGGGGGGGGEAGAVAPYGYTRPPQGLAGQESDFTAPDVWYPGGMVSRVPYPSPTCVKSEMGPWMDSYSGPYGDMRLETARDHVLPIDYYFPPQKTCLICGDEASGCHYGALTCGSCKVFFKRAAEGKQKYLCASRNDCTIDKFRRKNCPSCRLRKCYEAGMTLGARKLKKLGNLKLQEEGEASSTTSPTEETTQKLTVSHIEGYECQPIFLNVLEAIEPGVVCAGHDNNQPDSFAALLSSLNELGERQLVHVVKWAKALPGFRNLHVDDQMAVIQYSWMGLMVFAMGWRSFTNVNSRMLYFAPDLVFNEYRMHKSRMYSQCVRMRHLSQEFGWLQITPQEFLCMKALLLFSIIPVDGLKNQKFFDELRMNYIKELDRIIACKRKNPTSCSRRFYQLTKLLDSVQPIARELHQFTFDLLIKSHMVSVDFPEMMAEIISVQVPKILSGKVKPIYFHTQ
T1 sequence (P10275 1-920) 2: T1 sequence (P10275 1-920) 1

[2] = target: T1, human AR; assay: cell-based; design: species or system AR2 cells (HepG2-AR2); NanoLuc complementation AR homodimerization, antagonist mode, loss of agonist-induced luminescence, AC50 by Hill fit; details: hill_ga, antagonist mode, 10 nM agonist stimulus, 18 h, no CYP expressed
[3] = test system: AR2 cells (HepG2-AR2); assay: Alamar Blue (resazurin) post hoc cell viability / cytotoxicity assay in AR2 cells; details: spid Viability, sheet antagonist_fits; for hill_tp (Hill model top): 0 where win_model is Constant
Experimental: For antagonist mode and cytotoxicity data, well-level normalized response (resp) was calculated as: resp=100 * RLU−bval/pval−bval where pval is the median RLU value of the MEC positive control wells (minimum four wells).

[4] = target: T1, human AR; assay: AR2 assay, antagonist mode: disruption of R1881 (10 nM)-induced AR homodimerization in HepG2-AR2 cells; format: cell-based
[5] = test system: AR; design: method as in Kleinstreuer et al., 2017; details: 2017, cited from earlier work; for Agonist reference: AR agonist reference class ref Kleinstreuer et al.; for Antagonist reference: AR antagonist reference class ref Kleinstreuer et al.
[6] = test system: full-length human AR and the receptor interacting domain (RID) of SRC1; design: method as in U.S. EPA, 2002b; details: cited from earlier work
[7] = sheet agonist_fits, Hill model top (efficacy), 0 given where win_model is Constant
[8] = sheet agonist_fits, maximum median response
[9] = sheet agonist_fits, winning concentration-response model (Constant, Hill, Gain-Loss)
[10] = spid AR_antagonist, sheet antagonist_fits
[11] = spid AR_antagonist, sheet antagonist_fits, 0 where win_model is Constant
[12] = activity call, 8 h, single protocol detects agonists and antagonists, invitroDBv3.4 ref U.S. EPA, 2002b
[13] = activity call, 16 h, single protocol detects agonists and antagonists, invitroDBv3.4 ref U.S. EPA, 2002b

O=[N+]([O-])c1ccc(O)c([N+](=O)[O-])c1 [2,4-Dinitrophenol]
hill_tp [1, 7]: 0 | max_med [1, 8]: 0.06149 | win_model [1, 9]: Constant | AC50 ([2]; spid=Bgal): 61.4 µM | AC50 ([2]; spid=No_RNA): 35.8 µM | max_med (maximum median response) [3]: 17.6561 | hill_tp (Hill model top) [3]: 19.403 | max_med (maximum median response) [4, 10]: 41.2653 | win_model (winning concentration-response model) [4, 10]: Hill | hill_gw (Hill model slope) [4, 11]: 1.229 | hill_tp (Hill model top) [4, 11]: 60.4053

C[C@]12CCC(=O)C=C1CC[C@@H]1[C@@H]2CC[C@]2(C)C(=O)CC[C@@H]12 [4-Androstene-3,17-dione]
Agonist reference [5]: Moderate | Antagonist reference [5]: Inactive | Agonist reference ([5]; Supplementary Table S1): Moderate | OT 8 hr [6, 12]: 1 | OT 16 hr [6, 13]: 1 | max_med (maximum median response) [3]: 19.1138 | hill_tp (Hill model top) [3]: 19.333

C[C@]12C=CC3=C4CCC(=O)C=C4CC[C@H]3[C@@H]1CC[C@@H]2O [17beta-Trenbolone]
Agonist reference [5]: Strong | Agonist reference ([5]; Supplementary Table S1): Strong | AR2 agonist [1]: 1 | activity call in agonist mode [1]: tested active | hill_gw [1]: 0.7579 | hill_tp [1]: 6.165 | max_med [1]: 6.198 | win_model [1]: Hill | OT 8 hr [6]: 1 | OT 16 hr [6]: 1 | max_med (maximum median response) [3]: 21.7453 | hill_tp (Hill model top) [3]: 17.3642 | hill_gw (Hill model slope) [4]: 6.214 | hill_tp (Hill model top) [4]: 20.2687 | max_med (maximum median response) [4]: 20.7317 | win_model (winning concentration-response model) [4]: Gain-Loss

CC/C(=C(\c1ccc(O)cc1)c1ccc(OCCN(C)C)cc1)c1ccccc1 [Afimoxifene (4-Hydroxytamoxifen)]
hill_tp [1, 7]: 0 | max_med [1, 8]: 0.04316 | win_model [1, 9]: Constant | AC50 ([2]; spid=Bgal): 7.28 µM | AC50 ([2]; spid=No_RNA): 5.39 µM | max_med (maximum median response) [3]: 99.7378 | hill_tp (Hill model top) [3]: 99.9149 | max_med (maximum median response) [4, 10]: 104.395 | win_model (winning concentration-response model) [4, 10]: Hill | hill_gw (Hill model slope) [4, 11]: 3.209 | hill_tp (Hill model top) [4, 11]: 105.037

CCCCOC(=O)c1ccccc1C(=O)OCc1ccccc1 [Butylbenzylphthalate]
Agonist reference ([5]; Supplementary Table S1): Inactive | max_med (maximum median response) [3]: 15.4413 | hill_tp (Hill model top) [3]: 12.3573

CCN(CC)CCOc1ccc(/C(=C(/Cl)c2ccccc2)c2ccccc2)cc1 [Enclomiphene hydrochloride]
hill_tp [1, 7]: 0 | max_med [1, 8]: 0.05981 | win_model [1, 9]: Constant | max_med (maximum median response) [3]: 99.6641 | hill_tp (Hill model top) [3]: 101.238 | max_med (maximum median response) [4, 10]: 104.097 | win_model (winning concentration-response model) [4, 10]: Hill | hill_gw (Hill model slope) [4, 11]: 2.002 | hill_tp (Hill model top) [4, 11]: 106.442

COP(=S)(OC)Oc1ccc([N+](=O)[O-])c(C)c1 [Fenitrothion]
Antagonist reference [5]: Strong | Antagonist reference ([5]; Supplementary Table S1): Strong | max_med (maximum median response) [3]: 18.684 | hill_tp (Hill model top) [3]: 19.2014

CC(C)(C)NC(=O)[C@H]1CC[C@H]2[C@@H]3CC[C@H]4NC(=O)C=C[C@]4(C)[C@H]3CC[C@]12C [Finasteride]
Agonist reference [5]: Inactive | max_med (maximum median response) [3]: 14.3947 | hill_tp (Hill model top) [3]: 0

CC(C)C(=O)Nc1ccc([N+](=O)[O-])c(C(F)(F)F)c1 [Flutamide]
Agonist reference [5]: Inactive | Antagonist reference [5]: Moderate | Antagonist reference ([5]; Supplementary Table S1): Moderate | max_med (maximum median response) [3]: 35.756 | hill_tp (Hill model top) [3]: 43.7281

CC(C)(O)C(=O)Nc1ccc([N+](=O)[O-])c(C(F)(F)F)c1 [Hydroxyflutamide]
Antagonist reference [5]: Strong | Antagonist reference ([5]; Supplementary Table S1): Strong | activity call in agonist mode ([1]; 128-chemical evaluation, 18 h, active = maximal median response >5*bmad): tested active | hill_gw ([1]; sheet agonist_fits, Hill model gain slope (Hill coefficient), 0 given where win_model is Constant): 0.8082 | hill_tp [1, 7]: 5.723 | max_med [1, 8]: 5.832 | win_model [1, 9]: Hill | OT 8 hr [6, 12]: 1 | OT 16 hr [6, 13]: 1 | max_med (maximum median response) [3]: 16.5535 | hill_tp (Hill model top) [3]: 15.0961 | activity call in antagonist mode ([4]; 128-chemical evaluation, 18 h, active = maximal median response >3*bmad and AC50 at least 0.5 log units below cytotoxicity AC50): tested inactive | AR2 antagonist ([4]; activity call, antagonist mode, 18 h): 0 | Emax ([4]; read-out: antagonist response / maximum efficacy (% inhibition)): > 90% | max_med (maximum median response) [4, 10]: 26.302 | win_model (winning concentration-response model) [4, 10]: Hill | hill_gw (Hill model slope) [4, 11]: 8 | hill_tp (Hill model top) [4, 11]: 19.7734

C#C[C@]1(O)CC[C@H]2[C@@H]3CCC4=CC(=O)CC[C@@H]4[C@H]3CC[C@@]21CC [Levonorgestrel]
Agonist reference [5]: Strong | Agonist reference ([5]; Supplementary Table S1): Strong | max_med (maximum median response) [3]: 19.7477 | hill_tp (Hill model top) [3]: 15.1748

CON(C)C(=O)Nc1ccc(Cl)c(Cl)c1 [Linuron]
Antagonist reference [5]: Moderate | Antagonist reference ([5]; Supplementary Table S1): Moderate | max_med (maximum median response) [3]: 8.62 | hill_tp (Hill model top) [3]: 20.739

CCOC(=O)CC(SP(=S)(OC)OC)C(=O)OCC (stereo not shown) [Malathion]
hill_tp [1, 7]: 0 | max_med [1, 8]: 0.05987 | win_model [1, 9]: Constant | max_med (maximum median response) [3]: 9.605 | hill_tp (Hill model top) [3]: 0 | max_med (maximum median response) [4, 10]: 33.4262 | win_model (winning concentration-response model) [4, 10]: Hill | hill_gw (Hill model slope) [4, 11]: 0.997 | hill_tp (Hill model top) [4, 11]: 41.649

CNC(=O)ON=C(C)SC [Methomyl]
Antagonist reference [5]: Inactive | max_med (maximum median response) [3]: 19.3855 | hill_tp (Hill model top) [3]: 17.5917

COc1ccc(C(c2ccc(OC)cc2)C(Cl)(Cl)Cl)cc1 [Methoxychlor]
Antagonist reference [5]: Weak | Antagonist reference ([5]; Supplementary Table S1): Weak | max_med (maximum median response) [3]: 4.672 | hill_tp (Hill model top) [3]: 0

CC1(C)NC(=O)N(c2ccc([N+](=O)[O-])c(C(F)(F)F)c2)C1=O [Nilutamide]
Agonist reference ([5]; Supplementary Table S1): Inactive | Antagonist reference ([5]; Supplementary Table S1): Moderate | max_med (maximum median response) [3]: 8.678 | hill_tp (Hill model top) [3]: 5.9263

C#C[C@]1(O)CC[C@H]2[C@@H]3CCC4=CC(=O)CC[C@@H]4[C@H]3CC[C@@]21C [Norethindrone]
Agonist reference [5]: Strong | Agonist reference ([5]; Supplementary Table S1): Strong | max_med (maximum median response) [3]: 2.971 | hill_tp (Hill model top) [3]: 0

CNC(=O)O/N=C(\SC)C(=O)N(C)C [Oxamyl]
hill_tp [1, 7]: 0 | max_med [1, 8]: 0.09886 | win_model [1, 9]: Constant | max_med (maximum median response) [3]: 14.6316 | hill_tp (Hill model top) [3]: 13.892 | max_med (maximum median response) [4, 10]: 4.35 | win_model (winning concentration-response model) [4, 10]: Constant | hill_gw (Hill model slope) [4, 11]: 0 | hill_tp (Hill model top) [4, 11]: 0

CCCN(CCOc1c(Cl)cc(Cl)cc1Cl)C(=O)n1ccnc1 [Prochloraz]
Agonist reference [5]: Inactive | Antagonist reference [5]: Moderate | Antagonist reference ([5]; Supplementary Table S1): Moderate | max_med (maximum median response) [3]: 76.2192 | hill_tp (Hill model top) [3]: 81.7308

CC(=O)S[C@@H]1CC2=CC(=O)CC[C@]2(C)[C@H]2CC[C@@]3(C)[C@@H](CC[C@@]34CCC(=O)O4)[C@H]12 [Spironolactone]
Antagonist reference [5]: Strong | Antagonist reference ([5]; Supplementary Table S1): Strong | max_med (maximum median response) [3]: 26.4305

CC/C(=C(\c1ccccc1)c1ccc(OCCN(C)C)cc1)c1ccccc1 [Tamoxifen]
Agonist reference [5]: Inactive | max_med (maximum median response) [3]: 41.7162 | hill_tp (Hill model top) [3]: 97.2082

From article PMC10112521, “High-throughput AR dimerization assay identifies androgen disrupting chemicals and metabolites” (Frontiers in Toxicology, 2023)
